Experimental data as given in patent US20220105096A1, “INHIBITORS OF HUMAN IMMUNODEFICIENCY VIRUS REPLICATION” (ViiV HEALTHCARE UK (NO.5) LIMITED, priority 2019, published 2022).

Assays:
[1] = Pharmacokinetic parameters in vivo, rat; set-up: species or system Wistar Han Rats; conditions: Wistar Han, plasma
Description: (§1) PK was investigated in male CD1 mice, Wistar Han Rats, Cynomolgus monkeys, and Beagle Dogs. Two groups of animals (N=3 per group) received test compound either as an intravenous (IV) dose (1 mg/kg) or by oral gavage (5 mg/kg solution and suspension). Drug was formulated in 90% PEG 400, 10% ethanol for IV administration and in 90% PEG400, 5% ethanol for PO administration. Blood samples were collected at 0.167, 0.25, 0.5, 0.75, 1, 2, 3, 5, 7, 24, 48, 72 and 96 h post dose for IV; 0.25, 0.5, 0.75, 1, 2, 3, 5, 7, 24, 48, 72 and 96 h post dose for oral. Blood samples were collected into K3EDTA tubes and centrifuged at 1500 to 2000×g to obtain plasma. Plasma samples were stored at −20° C. until analysis by LC-MS/MS. All […] samples were injected on an Exion LC 4500 Triple Quad™ LC-MS/MS system. The analytical column used was a Phenomenex C18 (C18, 4.6 mm×50 mm, 5 μm) maintained at room temperature. Mobile Phase A consisted of 0.1% (v/v) formic acid in MilliQ water. Mobile Phase B consisted of 100% methanol. The flow rate was 1 mL/min. […] All LC-MS/MS analysis parameters are captured electronically in the raw data files. The PK parameters were obtained by non-compartmental analysis of plasma concentration vs time data (Phoenix WinNonlin v8). The peak concentration (Cmax) and time for Cmax (Tmax) were recorded directly from experimental observations. The area under the curve from time zero to the last sampling time [AUC0-T] and the area under the curve from time zero to infinity [AUCINF] were calculated using a combination of linear and log trapezoidal summations. The total plasma clearance (CLTp), steady-state volume of distribution (Vss), apparent elimination half-life (T-HALF), and mean residence time (MRT) were estimated after IV administration. Estimations of AUC and T-HALF were made using a minimum of three timepoints with quantifiable concentrations. The absolute oral bioavailability (F) was estimated as the ratio of dose-normalized AUC values following oral and IV doses.

[2] = Metabolism in human liver microsomes; type: in vitro ADME; conditions: pH 7.4, 1 μM compound, 1 mg/mL microsomes, NADPH, 37° C., read-out: Human liver microsome T1/2
Description: (§2) Liver microsomes from human, rat dog and monkey were thawed and diluted to a final concentration of 1 mg/mL in 100 mM potassium phosphate buffer (pH 7.4). Test compounds and controls were prepared at 100× final concentration of 1 μM in 1:1 acetonitrile:water (v/v) and aliquoted into microsomal mixture. The mixture was preincubated at 37° C. in a shaking water bath for 10 minutes. The incubations were performed in duplicate. Three controls were included in the incubations; warfarin, phenacetin, and verapamil. After the preincubation, the reaction was initiated with NADPH at a final concentration of 1 mM. At 0, 5, 15, 30, 45 and 60 minutes, 25 μL of sample was removed and quenched with 300 μL of acetonitrile containing internal standard (Telmisartan). The samples were vortexed for 5 minutes at 1200 rpm and then centrifuged at 4000 rpm for 10 min. A 100 μL aliquot of supernatant was diluted three-fold with water and injected on an Exion LC 4500 Triple Quad LC-MS/MS system. Results were reported as a percentage of parent remaining and was calculated from peak area ratios of test compound remaining after at each time point and compared to time zero incubation.

[3] = Pharmacokinetic parameters in vivo, dog; set-up: species or system Beagle Dogs
Description: as §1

[4] = Pharmacokinetic parameters in vivo, monkey; set-up: species or system Cynomolgus monkeys
Description: as §1

[5] = Metabolism in monkey liver microsomes; type: in vitro ADME
Description: as §2

[6] = Allometric scaling of pre-clinical PK parameters to predict dose in human
Description: Human dose predictions were performed using Phoenix WinNonlin (v 8.0) software and Microsoft Excel using the ModelRisk add-in for population modeling. Human IV parameters (Vc, Ka, K12, K21, KeI) were determined using Mean Residence Time (MRT) scaling from preclinical species (mouse, rat, dog and cyno). For this calculation, each animal of the relevant PK studies was modeled independently. Absorption (Ka) was determined by deconvolution (PO) or from the half-life (SC) in preclinical species (Ka=LN(2)/t1/2). The predicted human dose for PO and SC is calculated with consideration of human variability and is calculated to cover 95% of the human population.

[7] = Subcutaneous in vivo PK experiment in rat; set-up: species or system Wistar Han Rats; conditions: subcutaneous injection 20 mg/kg
Description: Drug was formulated in 1% Kolliphor P188/1% PEG3350/3.5% Mannitol/94.5% Water and then administered to Wistar Han Rats as a subcutaneous injection at a dose of 20 mg/kg. Blood samples were collected at 0.167, 0.25, 0.5, 0.75, 1, 2, 3, 5, 7, 24, 48, 72, 96 h, and then every 3 days for up to 122 days. Blood samples were collected into K3EDTA tubes and centrifuged at 1500 to 2000×g to obtain plasma. Plasma samples were stored at −20° C. until analysis by LC-MS/MS.

[8] = Beagle, plasma, Dog, IV 1 mg/kg
[9] = cynomolgus monkey, plasma, Monkey, IV 1 mg/kg

SMILES: Cn1nc(NS(C)(=O)=O)c2c(Cl)ccc(-n3c([C@H](Cc4cc(F)cc(F)c4)NC(=O)Cn4nc(C(F)F)c5c4C(F)(F)[C@@H]4C[C@H]54)nc4nc(OCCC(C)(F)F)ccc4c3=O)c21 (atropisomer, axis not shown; (P)) [Example 1, N—((S)-1-((3P)-3-(4-chloro-1-methyl-3-(methylsulfonamido)-1H-indazol-7-yl)-7-(3,3-difluorobutoxy)-4-oxo-3,4-dihydropyrido[2,3-d]pyrimidin-2-yl)-2-(3,5-difluorophenyl)ethyl)-2-((3bS,4aR)-3-(difluoromethyl)-5,5-difluoro-3b,4,4a,5-tetrahydro-1H-cyclopropa[3,4]cyclopenta[1,2-c]pyrazol-1-yl)acetamide]
- clearance ([1]; IV 1 mg/kg): 0.216 L/h/kg
- half-life ([1]; IV 1 mg/kg): 10.2 h
- Vd ([1]; IV 1 mg/kg, read-out: Vss): 1.76 L/kg
- bioavailability ([1]; oral gavage 5 mg/kg solution vs IV 1 mg/kg): 57.5%
- half-life at 1 μM [2]: > 2 h
- clearance [3, 8]: 0.0696 L/h/kg
- half-life [3, 8]: 12.4 h
- Vd ([3]; Beagle, plasma, Dog, IV 1 mg/kg, read-out: Vss): 0.88 L/kg
- bioavailability ([3]; Beagle, plasma, Dog, oral gavage 5 mg/kg solution vs IV 1 mg/kg): 34.6%
- half-life in circulation higher than Example 60.2 ([3]; dog): five-fold
- clearance improved relative to Example 60.2 ([3]; dog, IV): seven-fold
- clearance [4, 9]: 0.528 L/h/kg
- half-life [4, 9]: 4.2 h
- Vd ([4]; cynomolgus monkey, plasma, Monkey, IV 1 mg/kg, read-out: Vss): 1.73 L/kg
- bioavailability ([4]; cynomolgus monkey, plasma, Monkey, oral gavage 5 mg/kg solution vs IV 1 mg/kg): 7.92%
- half-life in circulation higher than Example 60.2 ([4]; monkey): three-fold
- clearance improved relative to Example 60.2 ([4]; monkey, IV): 2.5 fold
- stability in monkey liver microsomes relative to Example 60.2 ([5]; Example 1 versus Example 60.2): at least two times more stable
- half-life at 1 μM ([5]; monkey, liver microsomes, pH 7.4, 1 μM compound, 1 mg/mL microsomes, NADPH, 37° C., read-out: Monkey liver microsome T1/2): > 2 h
- predicted once-daily oral dose in human lower than for Example 60.2 ([6]; Example 1 versus Example 60.2): 15 fold
- predicted Q1M SC dose in human lower than for Example 60.2 ([6]; from SC rat apparent half-lives and predicted human clearance): 20 fold
- predicted human QD PO dose ([6]; once-daily oral dose to maintain efficacious plasma concentration, covers 95% of human population): less than 5 mg
- half-life ([7]; Wistar Han, plasma, sc, read-out: apparent half-life of compound in plasma (converted)): 1200 h
- time drug concentrations were maintained above 5 ng/mL [7]: 87 days
